The values below come from patent publication US20030083315A1, “Human chymase inhibitors” (priority 2000, published 2003).

Data set [1] addresses T1, recombinant human mast cell chymase (Homo sapiens, UniProt P23946).
T1 construct: made in house; host or cells: insect cell (Tn 5) infected with recombinant baculovirus
T1 sequence (P23946 22-247): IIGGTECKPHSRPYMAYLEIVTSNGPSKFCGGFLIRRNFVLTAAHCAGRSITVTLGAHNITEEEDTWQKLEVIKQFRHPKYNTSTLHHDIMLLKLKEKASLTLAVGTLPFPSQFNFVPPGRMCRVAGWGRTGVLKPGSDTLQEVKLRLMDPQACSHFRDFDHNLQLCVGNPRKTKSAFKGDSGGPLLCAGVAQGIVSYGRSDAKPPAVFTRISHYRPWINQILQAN
As to the kind of experiment: Inhibition of enzyme activity of recombinant human mast cell chymase. The note with it: active-type human mast cell chymase, substrate succinyl-alanyl-histidyl-prolyl-phenylalanylparanitroanilide 0.5 mM, room temperature 5 min, absorption at 405. In kind it is biochemical. The method, then: A recombinant pro-type human mast cell chymase was prepared according to the report by Urata et al., Journal of Biological Chemistry 17173, Vol. 266 (1991). That is, the product was purified from the supernatant of the culture broth of insect cell (Tn 5) infected with a recombinant baculovirus containing a cDNA encoding a human mast cell chymase by heparin sepharose (manufactured by Pharmacia Co.). The obtained chymase was further activated according to the report of Murakami et al., Journal of Biological Chemistry, 2218, Vol. 270 (1995), and then it was purified by heparin sepharose to yield an active-type human mast cell chymase.
To 50 μl of buffer A (0.5 to 3.0 M NaCl, 50 mM tris-HCl, pH 8.0) containing 1 to 5 ng of the active-type human mast cell chymase obtained by Example 19 was added 2 μl of a DMSO solution containing a compound of the present invention, and the mixture was made to react at room temperature for 5 min after the addition of 50 μl of the buffer A containing 0.5 mM of succinyl-alanyl-histidyl-prolyl-phenylalanylparanitroanilide (Bacchem Co.) as a substrate. The inhibition activity was determined by measuring the variation of the absorption at 405 nm with the passage of time.

The nature of data set [2]: Blood concentration after forced oral administration into rat stomach. Type of data set: in vivo. The note with it: SD male rat, 30 mg/kg forced into the stomach under starvation, serum, unchanged compound by HPLC; for AUC: read-out: AUC (extrapolation). The method, then: By using a SD male rat, a compound having the compound number of 121, 127 or 363 was forcedly administered at a dose of 30 mg/kg into the stomach under starvation, and blood samples were taken out at 30 min, 1 hr, 2 hr, 4 hr and 8 hr after the administration. Directly after the collection of the blood samples, the serum component was separated, the compound of the present invention was extracted by a general method of solid extraction, and the obtained sample was subjected to HPLC analysis by using an ODS column to measured the amount of the unchanged compound.

Data set [3] in a line: In vitro metabolic test using hepatic microsome (Ms). In kind it is in vitro ADME. The note with it: hepatic microsome 1.0 mg/mL, substrate 5.0 μM, 37° C.; for MR (maximum speed of metabolism): NADPH 1.0 mM. The method, then: Letting the amount of the unchanged body at the initial concentration (reaction time 0 min) 100%, the speed of metabolism is determined from the amount of the decrease of the unchanged body at each reaction time, and the maximum speed of metabolism (MR) is evaluated.
MR=(the substrate concentration at reaction time 0 min−the substance concentration after the reaction)÷reaction time÷protein concentration (nmol/min/mg-protein)

Regarding `Cc1cccc2cccc(Cn3c(SCCCC(=O)O)nc4ccccc43)c12` [Compound No. 492, 4-(1-((8-methyl-1-naphthyl)methyl)benzimidazole-2-ylthio)butyric Acid], in data set [1], the IC50 fell in the range of 0.001 to 0.01 µM. Regarding `CC(C)(CC(=O)O)C(=O)CSc1nc2ccccc2n1Cc1cccc2ccccc12` [Compound No. 494, 5-(1-((1-nanhthyl)methyl)benzimidazole-2-ylthio)-4-oxo-3,3-dimethylvaleric Acid], the IC50 in data set [1] lay in the range of 0.01 to 0.1 µM. On the same count and under the same terms, the figure for `O=C(O)CCSc1nc2ccccc2n1Cc1cccc2ccccc12` [Compound No. 496, 3-(1-((1-naphthyl)methyl)-benzimidazole-2-ylthio)propanoic acid] is 0.01 to 0.1 µM. As for `O=C(O)CCCCSc1nc2ccccc2n1Cc1cccc2ccccc12` [compound 497, 5-(1-((1-naphthyl)methyl)-benzimidazole-2-ylthio)valeric acid], the IC50 in data set [1] is 0.01 to 0.1 µM. For the compound `CCOc1ccc2c(c1)nc(SCCCC(=O)O)n2Cc1cccc2ccccc12` [Compound No. 128, 4-(1-((1-naphthyl)methyl)-5-ethoxybenzimidazole-2-ylthio)butyric acid], in data set [1], the IC50 lay within 0.01 to 0.1 µM. Take `Cc1ccc(C)c(Cn2c(SCCCC(=O)O)nc3cc(C#N)ccc32)c1` [Compound No. 337, 4-(1-((2,5-dimethylphenyl)methyl)-5-cyanobenzimidazole-2-ylthio)butyric Acid]: in data set [1], the IC50 lay in the range of 0.01 to 0.1 µM.

Consider `O=C(O)CCCSc1nc2cc(C(F)(F)F)ccc2n1Cc1cccc2ccccc12` [Compound No. 126, 4-(1-((1-naphthyl)methyl)-5-trifluoromethylbenzimidazole-2-ylthio)butyric Acid], for which the IC50 in data set [1] fell in the range of 0.01 to 0.1 µM. Turning to `COc1ccc2c(c1)nc(SCCCC(=O)O)n2Cc1cc(C)ccc1C` [Compound No. 495, 4-(1-((2,5-dimethylphenil)methyl)-5-methoxybenzimidazole-2-ylthio)butyric Acid], the IC50 in data set [1] was 0.01 to 0.1 µM. As for `O=C(O)CCCSc1nc2ccccc2n1Cc1cccc2ccccc12` [Compound No. 121, 4-(1-((1-naphthyl)methyl)benzimidazole-2-ylthio)butyric acid], the IC50 in data set [1] fell in the range of 0.001 to 0.01 µM. In addition, in data set [2], the highest level (Cmax) was 122 µg/mL and the AUC is 226 µg·h/mL. Moreover, in data set [3], the “Remaining Rate (%) of Substrate at 30 min” value (from here on “Remaining Rate (%)”) is listed as 56.6% and the “MR (maximum speed of metabolism)” value was 0.235 nmol/min/mg-protein. On to `N#Cc1ccc2c(c1)nc(SCCCC(=O)O)n2Cc1cccc2ccccc12` [Compound No. 363, 4-(1-((1-naphthyl)methyl)-5-cyanobenzimidazole-2-ylthio)butyric acid], for which the IC50 in data set [1] is 0.01 to 0.1 µM. Besides, in data set [2], the Cmax was found to be 77 µg/mL and the AUC is 182 µg·h/mL. Also, in data set [3], the “Remaining Rate (%)” value worked out at 57.6% and the “MR (maximum speed of metabolism)” value worked out at 0.147 nmol/min/mg-protein. As to `Cc1cc2nc(SCCCC(=O)O)n(Cc3cccc4cccc(C)c34)c2cc1C` [Compound No. 493, 4-(1-((8-methyl-1-naphthyl)methyl)-5,6-dimethylbenzimidazole-2-ylthio)-butyric Acid], the IC50 in data set [1] was in the range of 0.001 to 0.01 µM. `Cc1cc2nc(S(=O)(=O)CCCC(=O)O)n(Cc3cccc4ccccc34)c2cc1C` [Compound No. 498, 4-(1-((1-naphthyl)methyl)-5,6-dimethylbenzimidazole-2-ylsulfonyl)butyric acid]: in data set [1], the IC50 fell in the range of 0.01 to 0.1 µM.

On to `O=C(O)CCCSc1nc2cc(F)c(F)cc2n1Cc1cccc2ccccc12` [Compound No. 131, 4-(1-((1-naphthyl)methyl)-5,6-difluorobenzimidazole-2-ylthio)butyric acid], for which the IC50 in data set [1] lay within 0.01 to 0.1 µM.

With `COc1ccc2c(c1)nc(SCCCC(=O)O)n2Cc1cccc2ccccc12` [Compound No. 127, 4-((1-((1-naphthyl)methyl)-5-methoxybenzimidazole)-2-ylthio)butyric acid], the IC50 in data set [1] lay in the range of 0.001 to 0.01 µM. Further, in data set [2], the Cmax turned out to be 76 µg/mL and the exposure (AUC) is 181 µg·h/mL. Also, in data set [3], the “Remaining Rate (%)” value is 21.6% and the “MR (maximum speed of metabolism)” value stood at 0.190 nmol/min/mg-protein.

For the compound `Cc1cc2nc(SCCCC(=O)O)n(Cc3cccc4ccccc34)c2cc1C` [Compound No. 129, 4-(1-((1-naphthyl)methyl)-5,6-dimethylbenzimidazole-2-ylthio)butyric acid], in data set [1], the IC50 was 0.001 to 0.01 µM.
